Laboratory results published in patent US8722849B2, “Polypeptides” (Novo Nordisk A/S, priority 2011, dated 2014).
Starred links: 1 amine or outer side, 2 acyl side, 3 side chain; linkers in the order of their positions; H or OH if unused. Positions of bridges follow the written chain, without caps; N, C: chain ends. Residues, ends and D or L forms follow the SMILES beside them. *: point of attachment. C20 diacid = O=C(O)CCCCCCCCCCCCCCCCCCC(=O)*; γGlu = O=C(O)[C@H](CCC(=O)[*:2])N[*:1]

Columns and labels:
[1] = system: food intake; assay: Assay (I) efficacy testing on appetite (food intake), ad libitum fed rat model; type: in vivo, Sprague Dawley (SD) rats; conditions: 3 nmol/kg
Description: In the following examples reference is made to the following Assays: • Assay (I)— Experimental protocol for efficacy testing on appetite using an ad libitum fed rat model • ASSAY (II)a—Functional assay—Human calcitonin and amylin receptor assay • ASSAY (II)b—Functional assay—Rat calcitonin and rat amylin receptor assays • ASSAY (III)—ThT fibrillation assays for the assessment of physical stability of protein formulations • ASSAY (IV)—Determination of solubility • ASSAY (V)—Determination of binding to the human amylin receptor • ASSAY (VI)—Determination of the binding to the rat amylin receptor • ASSAY (VII)—Determination of binding to the human calcitonin receptor • ASSAY (VIII)—Determination of binding to the rat calcitonin receptor • ASSAY (IX)—pK—Determination of T % in mini-pig • ASSAY (X)—pK—Determination of T % in rat ASSAY (I)—Experimental Protocol for Efficacy Testing on Appetite Using an Ad Libitum Fed Rat Model
Sprague Dawley (SD) rats from Taconic Europe, Denmark are used for the experiments. The rats have a body weight 200-250 g at the start of experiment. The rats arrive at least 10-14 days before start of experiment to allow acclimatization to experimental settings. During this period the animals are handled at least 2 times. After arrival rats are housed individually for one week in a reversed light/dark phase (meaning that lights are off during daytime and on during nighttime) […]. Since rats are normally active and eat their major part of their daily food intake during the dark period, rats are dosed in the morning right before lights are turned off. This set-up results in the lowest data variation and highest test sensitivity. The experiment is conducted in the rats' home cages and rats have free access to food and water throughout the acclimatization period and the experiment period. Each dose of derivative is tested in a group of 5-8 rats. A vehicle group of 6-8 rats is included in each set of testing. Rats are dosed once according to body weight with a 0.01-3 mg/kg solution administered intraperitoneally (ip), orally (po) or subcutaneously (sc). The time of dosing is recorded for each group. After dosing, the rats are returned to their home cages, where they then have access to food and water. The food consumption is recorded individually continuously by on-line registration or manually every hour for 7 hours, and then after 24 h and sometimes 48 h. At the end of the experimental session, the animals are euthanised.
The individual data are recorded in Microsoft excel sheets. Outliers are excluded after applying the Grubbs statistical evaluation test for outliers, and the result is presented graphically using the GraphPad Prism program.

[2] = Assay (III) ThT fibrillation assay for physical stability; type: physicochemical
In short: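 Freshly prepared formulations, pH-adjusted, with 1 μM ThT; four or eight replicates incubated at 37 °C under 960 rpm orbital shaking. Fluorescence (ex 444/em 485 nm) read every 20 min; […]. Peptide concentration measured by RP-HPLC before and after the run.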

ThT pH 4.0 lag time ([2]; Table 8) | ThT pH 4.0 lag time ([2]; Table 9) | ThT pH 4.0 lag time ([2]; ThT fibrillation assay) | ThT pH 4.0 lag time (h) ([2]; ThT fibrillation assay) | Structure (SMILES) | Food intake reduction 0-24 h 3 nmol/kg (%) [1] | Food intake reduction 24-48 h 3 nmol/kg (%) [1]
>45 h | >45 h | >45 h | >45 h | CC[C@H](C)[C@H](NC(=O)[C@@H]1CCCN1C(=O)CNC(=O)[C@H](Cc1ccccc1)NC(=O)[C@H](CC(N)=O)NC(=O)[C@H](CC(N)=O)NC(=O)[C@H](CO)NC(=O)[C@H](CO)NC(=O)[C@H](Cc1c[nH]cn1)NC(=O)[C@H](Cc1c[nH]cn1)NC(=O)[C@H](CC(C)C)NC(=O)[C@H](Cc1ccccc1)NC(=O)[C@H](CCC(=O)O)NC(=O)[C@H](C)NC(=O)[C@H](CC(C)C)NC(=O)[C@H](CCCNC(=N)N)NC(=O)[C@H](CCC(N)=O)NC(=O)[C@@H](NC(=O)[C@H](C)NC(=O)[C@@H]1CSSC[C@H](NC(=O)[C@H](CCCCN)NC(=O)CC[C@H](NC(=O)CCCCCCCCCCCCCCCCCCC(=O)O)C(=O)O)C(=O)N[C@@H](CC(N)=O)C(=O)N[C@@H]([C@@H](C)O)C(=O)N[C@@H](C)C(=O)N[C@@H]([C@@H](C)O)C(=O)N1)[C@@H](C)O)C(=O)N[C@@H](CC(C)C)C(=O)N1CCC[C@H]1C(=O)N1CCC[C@H]1C(=O)N[C@H](C(=O)N[C@@H](CC(N)=O)C(=O)N[C@H](C(=O)NCC(=O)N[C@@H](CO)C(=O)N[C@@H](CC(N)=O)C(=O)N[C@H](C(=O)N1CCC[C@H]1C(N)=O)[C@@H](C)O)C(C)C)[C@@H](C)O [Example 52, N-alpha-[(S)-4-Carboxy-4-(19-carboxynonadecanoylamino)butyryl]-[Glu14,His17,Pro37]-pramlintide] ({C20 diacid-γGlu}-KCNTATCATQRLAEFLHHSSNNFGPILPPTNVGSNTP-NH2; disulfide 2-7 (inferred); C-terminus assumed) | 62% | 74%
– | – | 30.3 h | 30.3 h | CC[C@H](C)[C@H](NC(=O)[C@@H]1CCCN1C(=O)CNC(=O)[C@H](Cc1ccccc1)NC(=O)[C@H](CC(N)=O)NC(=O)[C@H](CC(N)=O)NC(=O)[C@H](CO)NC(=O)[C@H](CO)NC(=O)[C@H](Cc1c[nH]cn1)NC(=O)[C@H](Cc1c[nH]cn1)NC(=O)[C@H](CC(C)C)NC(=O)[C@H](Cc1ccccc1)NC(=O)[C@H](CCC(=O)O)NC(=O)[C@H](C)NC(=O)[C@H](CC(C)C)NC(=O)[C@H](CCCNC(=N)N)NC(=O)[C@H](CCC(N)=O)NC(=O)[C@@H](NC(=O)[C@H](C)NC(=O)[C@@H]1CSSC[C@H](NC(=O)[C@H](Cc2c[nH]cn2)NC(=O)[C@H](Cc2c[nH]cn2)NC(=O)CC[C@H](NC(=O)CCCCCCCCCCCCCCCCCCC(=O)O)C(=O)O)C(=O)N[C@@H](CC(N)=O)C(=O)N[C@@H]([C@@H](C)O)C(=O)N[C@@H](C)C(=O)N[C@@H]([C@@H](C)O)C(=O)N1)[C@@H](C)O)C(=O)N[C@@H](CC(C)C)C(=O)N1CCC[C@H]1C(=O)N1CCC[C@H]1C(=O)N[C@H](C(=O)N[C@@H](CC(N)=O)C(=O)N[C@H](C(=O)NCC(=O)N[C@@H](CO)C(=O)N[C@@H](CC(N)=O)C(=O)N[C@H](C(=O)N[C@@H](Cc1ccc(O)cc1)C(N)=O)[C@@H](C)O)C(C)C)[C@@H](C)O [Example 17, N-alpha-[(S)-4-Carboxy-4-(19-carboxynonadecanoylamino)butyryl]-His-[His1,Glu14,His17]-pramlintide] ({C20 diacid-γGlu}-HHCNTATCATQRLAEFLHHSSNNFGPILPPTNVGSNTY-NH2; disulfide 3-8 (inferred); C-terminus assumed) | 40% | 22%
– | – | – | 4.7 h | CC[C@H](C)[C@H](NC(=O)[C@@H]1CCCN1C(=O)CNC(=O)[C@H](Cc1ccccc1)NC(=O)[C@H](CC(N)=O)NC(=O)[C@H](CC(N)=O)NC(=O)[C@H](CO)NC(=O)[C@H](CO)NC(=O)[C@H](CCCNC(=N)N)NC(=O)[C@@H](NC(=O)[C@H](CC(C)C)NC(=O)[C@H](Cc1ccccc1)NC(=O)[C@H](CCC(=O)O)NC(=O)[C@H](C)NC(=O)[C@H](CC(C)C)NC(=O)[C@H](CCCNC(=N)N)NC(=O)[C@H](CCC(N)=O)NC(=O)[C@@H](NC(=O)[C@H](C)NC(=O)[C@@H]1CSSC[C@H](NC(=O)[C@H](Cc2c[nH]cn2)NC(=O)CC[C@H](NC(=O)CCCCCCCCCCCCCCCCCCC(=O)O)C(=O)O)C(=O)N[C@@H](CC(N)=O)C(=O)N[C@@H]([C@@H](C)O)C(=O)N[C@@H](C)C(=O)N[C@@H]([C@@H](C)O)C(=O)N1)[C@@H](C)O)C(C)C)C(=O)N[C@@H](CC(C)C)C(=O)N1CCC[C@H]1C(=O)N1CCC[C@H]1C(=O)N[C@H](C(=O)N[C@@H](CC(N)=O)C(=O)N[C@H](C(=O)NCC(=O)N[C@@H](CO)C(=O)N[C@@H](CC(N)=O)C(=O)N[C@H](C(=O)N[C@@H](Cc1ccc(O)cc1)C(N)=O)[C@@H](C)O)C(C)C)[C@@H](C)O [Example 15, N-alpha-[(S)-4-Carboxy-4-(19-carboxynonadecanoylamino)butyryl]-[His1,Glu14,Arg18]-pramlintide] ({C20 diacid-γGlu}-HCNTATCATQRLAEFLVRSSNNFGPILPPTNVGSNTY-NH2; disulfide 2-7 (inferred); C-terminus assumed) | 56% | 59%
